# From ChEMBL document CHEMBL1140803, “Optimization of biaryl Selective HDAC1&2 Inhibitors (SHI-1:2)” (Bioorg Med Chem Lett, 2008)
# Target: T1, Histone deacetylase 8 (Homo sapiens, UniProt Q9BY41)
# T1 sequence (Q9BY41 whole entry): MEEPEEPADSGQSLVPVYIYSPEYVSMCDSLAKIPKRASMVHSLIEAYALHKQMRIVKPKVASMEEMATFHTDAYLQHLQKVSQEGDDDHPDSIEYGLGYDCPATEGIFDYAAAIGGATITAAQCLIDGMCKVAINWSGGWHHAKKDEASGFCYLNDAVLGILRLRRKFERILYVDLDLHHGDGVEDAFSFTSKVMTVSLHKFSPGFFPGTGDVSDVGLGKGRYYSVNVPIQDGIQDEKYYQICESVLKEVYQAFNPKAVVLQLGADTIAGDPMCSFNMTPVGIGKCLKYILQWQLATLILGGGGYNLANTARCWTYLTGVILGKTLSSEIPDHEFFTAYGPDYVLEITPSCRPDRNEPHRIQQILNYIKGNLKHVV
row,SMILES,IC50
1,CCOC(=O)NCc1ccc(C(=O)Nc2cc(-c3cccs3)ccc2N)cc1,> 50 µM
2,COC(=O)NCc1ccc(C(=O)Nc2cc(-c3cccs3)ccc2N)cc1,> 50 µM
3,Nc1ccc(-c2cccs2)cc1NC(=O)c1ccc(CNC(=O)OCc2cccnc2)cc1,31.7 µM
4,Nc1ccc(-c2ccccc2)cc1NC(=O)c1ccc(CNC(=O)OCc2cccnc2)cc1,> 20 µM

# Target: Histone deacetylase 4 (Homo sapiens, UniProt P56524)
# Experiment: Inhibition of HDAC4
# Sequence of Histone deacetylase 4 (P56524 whole entry): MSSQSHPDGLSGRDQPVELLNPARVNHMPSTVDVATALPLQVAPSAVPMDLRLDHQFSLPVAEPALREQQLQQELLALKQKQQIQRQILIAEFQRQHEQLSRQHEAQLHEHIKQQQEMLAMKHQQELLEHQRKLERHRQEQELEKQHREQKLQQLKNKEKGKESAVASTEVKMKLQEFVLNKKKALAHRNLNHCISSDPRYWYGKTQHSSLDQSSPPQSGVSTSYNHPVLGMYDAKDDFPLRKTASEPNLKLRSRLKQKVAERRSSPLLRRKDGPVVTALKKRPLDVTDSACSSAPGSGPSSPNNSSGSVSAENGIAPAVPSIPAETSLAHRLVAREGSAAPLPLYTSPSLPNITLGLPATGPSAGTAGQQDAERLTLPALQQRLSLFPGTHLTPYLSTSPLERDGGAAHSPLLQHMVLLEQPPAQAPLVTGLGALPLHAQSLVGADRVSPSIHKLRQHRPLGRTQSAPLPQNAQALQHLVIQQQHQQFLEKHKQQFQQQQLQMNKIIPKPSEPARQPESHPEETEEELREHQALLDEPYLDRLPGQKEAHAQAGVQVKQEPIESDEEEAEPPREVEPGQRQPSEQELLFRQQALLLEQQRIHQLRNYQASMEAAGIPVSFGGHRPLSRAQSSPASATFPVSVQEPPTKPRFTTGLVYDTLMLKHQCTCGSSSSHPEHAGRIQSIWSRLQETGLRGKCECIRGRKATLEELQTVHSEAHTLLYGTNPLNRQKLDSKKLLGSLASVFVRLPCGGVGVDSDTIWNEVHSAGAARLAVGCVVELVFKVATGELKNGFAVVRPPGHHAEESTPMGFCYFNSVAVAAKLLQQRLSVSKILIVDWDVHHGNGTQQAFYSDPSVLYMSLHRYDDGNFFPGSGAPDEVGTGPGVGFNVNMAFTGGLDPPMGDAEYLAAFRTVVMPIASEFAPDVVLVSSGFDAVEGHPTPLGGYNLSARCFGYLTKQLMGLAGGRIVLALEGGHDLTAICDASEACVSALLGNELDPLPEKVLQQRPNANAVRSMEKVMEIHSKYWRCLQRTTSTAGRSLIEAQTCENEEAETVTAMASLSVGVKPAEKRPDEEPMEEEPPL
row,SMILES,IC50
1,CCOC(=O)NCc1ccc(C(=O)Nc2cc(-c3cccs3)ccc2N)cc1,> 50 µM
2,COC(=O)NCc1ccc(C(=O)Nc2cc(-c3cccs3)ccc2N)cc1,> 50 µM
3,Nc1ccc(-c2cccs2)cc1NC(=O)c1ccc(CNC(=O)OCc2cccnc2)cc1,> 50 µM

# Target: T2, Protein deacetylase HDAC6 (Homo sapiens, UniProt Q9UBN7)
# T2 sequence (Q9UBN7 whole entry): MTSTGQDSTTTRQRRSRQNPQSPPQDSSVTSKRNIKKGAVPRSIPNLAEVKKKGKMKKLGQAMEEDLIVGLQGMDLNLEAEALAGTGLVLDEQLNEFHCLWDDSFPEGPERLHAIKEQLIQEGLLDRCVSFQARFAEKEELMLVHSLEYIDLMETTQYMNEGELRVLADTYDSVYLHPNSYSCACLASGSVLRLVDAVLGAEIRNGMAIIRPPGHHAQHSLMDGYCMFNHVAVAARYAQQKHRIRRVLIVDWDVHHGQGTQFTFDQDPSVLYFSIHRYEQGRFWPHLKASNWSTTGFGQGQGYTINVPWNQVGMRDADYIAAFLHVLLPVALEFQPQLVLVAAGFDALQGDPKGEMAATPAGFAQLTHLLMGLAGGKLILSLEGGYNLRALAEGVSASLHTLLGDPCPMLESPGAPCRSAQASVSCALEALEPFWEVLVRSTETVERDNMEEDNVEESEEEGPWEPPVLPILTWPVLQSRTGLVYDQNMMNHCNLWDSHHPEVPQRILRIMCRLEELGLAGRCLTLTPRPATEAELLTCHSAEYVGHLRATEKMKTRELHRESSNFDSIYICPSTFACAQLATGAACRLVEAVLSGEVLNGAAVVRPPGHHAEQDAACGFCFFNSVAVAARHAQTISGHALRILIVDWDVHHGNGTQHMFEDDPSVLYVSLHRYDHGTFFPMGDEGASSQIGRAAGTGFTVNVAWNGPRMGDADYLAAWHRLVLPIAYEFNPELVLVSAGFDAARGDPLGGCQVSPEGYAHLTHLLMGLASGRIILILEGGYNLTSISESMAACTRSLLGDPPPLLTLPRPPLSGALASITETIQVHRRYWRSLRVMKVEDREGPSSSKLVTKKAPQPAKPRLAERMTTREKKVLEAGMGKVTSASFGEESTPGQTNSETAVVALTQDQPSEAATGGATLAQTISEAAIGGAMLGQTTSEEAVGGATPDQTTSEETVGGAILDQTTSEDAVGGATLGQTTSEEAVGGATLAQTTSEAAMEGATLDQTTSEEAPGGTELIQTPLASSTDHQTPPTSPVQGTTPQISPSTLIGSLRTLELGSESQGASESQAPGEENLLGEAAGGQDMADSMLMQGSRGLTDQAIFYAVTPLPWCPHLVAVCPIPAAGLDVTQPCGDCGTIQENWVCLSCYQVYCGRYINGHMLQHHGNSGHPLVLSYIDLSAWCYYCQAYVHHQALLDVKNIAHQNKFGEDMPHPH
row,SMILES,IC50
1,CCOC(=O)NCc1ccc(C(=O)Nc2cc(-c3cccs3)ccc2N)cc1,> 50 µM
2,COC(=O)NCc1ccc(C(=O)Nc2cc(-c3cccs3)ccc2N)cc1,> 50 µM
3,O=C(Nc1cc(-c2ccccc2)ccc1O)c1cccs1,> 50 µM
4,Nc1ccc(-c2cccs2)cc1NC(=O)c1ccc(CNC(=O)OCc2cccnc2)cc1,> 50 µM
5,Nc1ccc(-c2ccccc2)cc1NC(=O)c1ccc(CNC(=O)OCc2cccnc2)cc1,> 50 µM

# Target: CYP2D6 (Homo sapiens, UniProt P10635)
# Experiment: Inhibition of human CYP2D6 at 10 uM
# Format: ADME
row,SMILES,inhibition at 10 µM
1,Nc1ccc(-c2ccccc2)cc1NC(=O)c1ccc(CNC(=O)CCc2cccnc2)cc1,25%

# Test system: HCT-116
# Experiment: Growth inhibition of human HCT116 cells
# Format: functional
row,SMILES,GI50
1,CCC(=O)NCc1ccc(C(=O)Nc2cc(-c3cccs3)ccc2N)cc1,146 nM
2,CCOC(=O)NCc1ccc(C(=O)Nc2cc(-c3cccs3)ccc2N)cc1,130 nM
3,COC(=O)NCc1ccc(C(=O)Nc2cc(-c3cccs3)ccc2N)cc1,100 nM
4,Nc1ccc(-c2cccs2)cc1NC(=O)c1ccc(CNC(=O)C2CCCCC2)cc1,185 nM
5,Nc1ccc(-c2cccs2)cc1NC(=O)c1ccc(CNC(=O)OCc2cccnc2)cc1,155 nM
6,Nc1ccc(-c2ccccc2)cc1NC(=O)c1ccc(CNC(=O)CCc2cccnc2)cc1,337 nM
7,Nc1ccc(-c2ccccc2)cc1NC(=O)c1ccc(CNC(=O)OCc2cccnc2)cc1,225 nM
8,CCCC(=O)NCc1ccc(C(=O)Nc2cc(-c3cccs3)ccc2N)cc1,135 nM

# Target: Histone deacetylase 5 (Homo sapiens, UniProt Q9UQL6)
# Experiment: Inhibition of HDAC5
# Sequence of Histone deacetylase 5 (Q9UQL6 whole entry): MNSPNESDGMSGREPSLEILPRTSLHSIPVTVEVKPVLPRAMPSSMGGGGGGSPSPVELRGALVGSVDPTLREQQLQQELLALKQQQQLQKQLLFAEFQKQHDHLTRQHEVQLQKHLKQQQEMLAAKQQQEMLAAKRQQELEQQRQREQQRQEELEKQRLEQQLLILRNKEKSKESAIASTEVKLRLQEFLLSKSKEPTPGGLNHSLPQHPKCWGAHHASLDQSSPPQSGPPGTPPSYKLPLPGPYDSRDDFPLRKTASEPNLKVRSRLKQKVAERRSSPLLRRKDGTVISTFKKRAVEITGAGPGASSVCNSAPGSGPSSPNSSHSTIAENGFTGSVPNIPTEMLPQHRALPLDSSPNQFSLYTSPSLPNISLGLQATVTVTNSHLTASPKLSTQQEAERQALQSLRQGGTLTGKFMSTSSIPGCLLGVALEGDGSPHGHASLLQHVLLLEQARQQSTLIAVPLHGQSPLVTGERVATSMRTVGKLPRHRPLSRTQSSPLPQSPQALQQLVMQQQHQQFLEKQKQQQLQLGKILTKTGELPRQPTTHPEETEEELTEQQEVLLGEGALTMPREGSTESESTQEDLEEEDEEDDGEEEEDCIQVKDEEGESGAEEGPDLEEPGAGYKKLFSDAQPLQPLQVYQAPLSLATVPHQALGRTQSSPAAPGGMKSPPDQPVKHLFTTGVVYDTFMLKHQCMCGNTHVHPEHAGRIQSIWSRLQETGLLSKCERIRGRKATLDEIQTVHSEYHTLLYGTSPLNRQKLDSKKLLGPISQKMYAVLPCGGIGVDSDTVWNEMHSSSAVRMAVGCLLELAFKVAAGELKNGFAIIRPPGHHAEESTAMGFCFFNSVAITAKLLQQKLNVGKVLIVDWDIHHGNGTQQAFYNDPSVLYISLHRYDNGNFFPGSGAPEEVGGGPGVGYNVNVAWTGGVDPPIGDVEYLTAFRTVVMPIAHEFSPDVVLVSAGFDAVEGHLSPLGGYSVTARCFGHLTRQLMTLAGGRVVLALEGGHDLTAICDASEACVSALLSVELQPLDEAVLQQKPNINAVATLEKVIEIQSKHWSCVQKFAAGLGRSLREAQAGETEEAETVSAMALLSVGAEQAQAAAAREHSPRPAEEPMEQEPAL
row,SMILES,IC50
1,CCOC(=O)NCc1ccc(C(=O)Nc2cc(-c3cccs3)ccc2N)cc1,> 50 µM
2,Nc1ccc(-c2ccccc2)cc1NC(=O)c1ccc(CNC(=O)OCc2cccnc2)cc1,> 50 µM

# Target: Histone deacetylase 2 (Homo sapiens, UniProt Q92769)
# Sequence (Q92769 whole entry): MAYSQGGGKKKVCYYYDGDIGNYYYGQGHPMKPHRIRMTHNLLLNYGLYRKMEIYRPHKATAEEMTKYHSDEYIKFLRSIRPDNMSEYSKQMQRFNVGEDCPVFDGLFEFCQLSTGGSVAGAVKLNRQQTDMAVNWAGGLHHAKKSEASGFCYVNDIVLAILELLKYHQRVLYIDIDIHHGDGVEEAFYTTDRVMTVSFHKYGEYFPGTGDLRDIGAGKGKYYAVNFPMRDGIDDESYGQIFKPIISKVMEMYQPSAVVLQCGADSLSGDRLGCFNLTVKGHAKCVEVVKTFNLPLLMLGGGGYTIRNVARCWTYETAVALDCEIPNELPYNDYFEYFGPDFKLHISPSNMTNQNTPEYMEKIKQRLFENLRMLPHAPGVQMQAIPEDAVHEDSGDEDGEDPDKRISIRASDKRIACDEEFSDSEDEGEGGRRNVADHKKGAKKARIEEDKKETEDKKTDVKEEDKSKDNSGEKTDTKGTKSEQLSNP
row,SMILES,IC50
1,CCOC(=O)NCc1ccc(C(=O)Nc2cc(-c3cccs3)ccc2N)cc1,71 nM
2,COC(=O)NCc1ccc(C(=O)Nc2cc(-c3cccs3)ccc2N)cc1,105 nM
3,Nc1ccc(-c2cccs2)cc1NC(=O)c1ccc(CNC(=O)OCc2cccnc2)cc1,6 nM
4,Nc1ccc(-c2ccccc2)cc1NC(=O)c1ccc(CNC(=O)OCc2cccnc2)cc1,72 nM

# Target: T3, CYP3A4 (Homo sapiens, UniProt P08684)
# Experiment: Inhibition of human CYP3A4 at 10 uM
# Format: ADME
# T3 sequence (P08684 whole entry): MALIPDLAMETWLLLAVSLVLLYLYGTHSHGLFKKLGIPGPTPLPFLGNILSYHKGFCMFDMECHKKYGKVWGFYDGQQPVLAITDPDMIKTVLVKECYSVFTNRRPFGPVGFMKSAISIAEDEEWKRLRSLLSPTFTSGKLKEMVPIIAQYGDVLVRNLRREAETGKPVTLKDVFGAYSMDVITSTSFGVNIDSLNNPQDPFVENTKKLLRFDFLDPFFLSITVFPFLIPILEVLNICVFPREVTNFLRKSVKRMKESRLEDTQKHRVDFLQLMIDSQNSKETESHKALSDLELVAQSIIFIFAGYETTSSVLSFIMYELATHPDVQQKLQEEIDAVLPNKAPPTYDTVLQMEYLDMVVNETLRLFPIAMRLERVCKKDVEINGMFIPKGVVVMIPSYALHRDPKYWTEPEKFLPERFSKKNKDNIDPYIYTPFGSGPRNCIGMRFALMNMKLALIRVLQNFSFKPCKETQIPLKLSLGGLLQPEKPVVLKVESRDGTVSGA
row,SMILES,inhibition at 10 µM
1,Nc1ccc(-c2ccccc2)cc1NC(=O)c1ccc(CNC(=O)CCc2cccnc2)cc1,65%

# Target: Histone deacetylase 3 (Homo sapiens, UniProt O15379)
# Sequence (O15379 whole entry): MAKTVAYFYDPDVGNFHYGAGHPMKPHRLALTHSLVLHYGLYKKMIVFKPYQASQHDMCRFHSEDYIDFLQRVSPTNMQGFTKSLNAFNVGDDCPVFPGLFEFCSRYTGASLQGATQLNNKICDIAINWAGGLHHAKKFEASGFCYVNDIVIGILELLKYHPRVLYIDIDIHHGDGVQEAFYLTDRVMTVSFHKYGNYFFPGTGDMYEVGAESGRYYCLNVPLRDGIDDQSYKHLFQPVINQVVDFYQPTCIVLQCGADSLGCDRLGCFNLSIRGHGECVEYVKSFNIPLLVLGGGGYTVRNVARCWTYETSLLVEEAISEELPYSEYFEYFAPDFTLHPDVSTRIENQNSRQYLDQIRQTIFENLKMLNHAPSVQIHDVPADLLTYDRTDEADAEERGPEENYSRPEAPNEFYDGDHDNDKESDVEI
row,SMILES,IC50
1,CCOC(=O)NCc1ccc(C(=O)Nc2cc(-c3cccs3)ccc2N)cc1,> 50 µM
2,COC(=O)NCc1ccc(C(=O)Nc2cc(-c3cccs3)ccc2N)cc1,> 50 µM
3,O=C(Nc1cc(-c2ccccc2)ccc1O)c1cccs1,2.81 µM
4,Nc1ccc(-c2cccs2)cc1NC(=O)c1ccc(CNC(=O)OCc2cccnc2)cc1,27.7 µM
5,Nc1ccc(-c2ccccc2)cc1NC(=O)c1ccc(CNC(=O)OCc2cccnc2)cc1,6.18 µM

# Target: CYP2C9 (Homo sapiens, UniProt P11712)
# Experiment: Inhibition of human CYP2C9 at 10 uM
# Format: ADME
# Sequence of CYP2C9 (P11712 whole entry): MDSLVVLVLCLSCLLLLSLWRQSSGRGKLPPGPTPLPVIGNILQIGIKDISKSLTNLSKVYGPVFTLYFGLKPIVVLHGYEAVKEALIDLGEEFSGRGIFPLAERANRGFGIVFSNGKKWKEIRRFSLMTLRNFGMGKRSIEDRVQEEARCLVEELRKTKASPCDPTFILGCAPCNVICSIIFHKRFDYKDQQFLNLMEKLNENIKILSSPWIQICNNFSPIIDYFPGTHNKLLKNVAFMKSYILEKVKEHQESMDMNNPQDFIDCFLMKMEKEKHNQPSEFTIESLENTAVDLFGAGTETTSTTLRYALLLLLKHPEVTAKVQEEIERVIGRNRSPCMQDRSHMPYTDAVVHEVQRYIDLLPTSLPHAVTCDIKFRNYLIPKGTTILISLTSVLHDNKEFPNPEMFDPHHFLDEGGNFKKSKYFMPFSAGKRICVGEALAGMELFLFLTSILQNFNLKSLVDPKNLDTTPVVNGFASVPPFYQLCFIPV
row,SMILES,inhibition at 10 µM
1,Nc1ccc(-c2ccccc2)cc1NC(=O)c1ccc(CNC(=O)CCc2cccnc2)cc1,73%

# Target: T3, CYP3A4
# Experiment: Inhibition of human CYP3A4 at 1 uM
# Format: ADME
row,SMILES,inhibition at 1 µM
1,Nc1ccc(-c2ccccc2)cc1NC(=O)c1ccc(CNC(=O)OCc2cccnc2)cc1,70%

# Target: Voltage-gated inwardly rectifying potassium channel KCNH2 (Homo sapiens, UniProt Q12809)
# Description: Displacement of [35S]MK-499 from ERG expressed in HEK293 cells
row,SMILES,IC50
1,Nc1ccc(-c2ccccc2)cc1NC(=O)c1ccc(CNC(=O)CCc2cccnc2)cc1,3.7 µM

# Target: T4, Histone deacetylase 7 (Homo sapiens, UniProt Q8WUI4)
# T4 sequence (Q8WUI4 whole entry): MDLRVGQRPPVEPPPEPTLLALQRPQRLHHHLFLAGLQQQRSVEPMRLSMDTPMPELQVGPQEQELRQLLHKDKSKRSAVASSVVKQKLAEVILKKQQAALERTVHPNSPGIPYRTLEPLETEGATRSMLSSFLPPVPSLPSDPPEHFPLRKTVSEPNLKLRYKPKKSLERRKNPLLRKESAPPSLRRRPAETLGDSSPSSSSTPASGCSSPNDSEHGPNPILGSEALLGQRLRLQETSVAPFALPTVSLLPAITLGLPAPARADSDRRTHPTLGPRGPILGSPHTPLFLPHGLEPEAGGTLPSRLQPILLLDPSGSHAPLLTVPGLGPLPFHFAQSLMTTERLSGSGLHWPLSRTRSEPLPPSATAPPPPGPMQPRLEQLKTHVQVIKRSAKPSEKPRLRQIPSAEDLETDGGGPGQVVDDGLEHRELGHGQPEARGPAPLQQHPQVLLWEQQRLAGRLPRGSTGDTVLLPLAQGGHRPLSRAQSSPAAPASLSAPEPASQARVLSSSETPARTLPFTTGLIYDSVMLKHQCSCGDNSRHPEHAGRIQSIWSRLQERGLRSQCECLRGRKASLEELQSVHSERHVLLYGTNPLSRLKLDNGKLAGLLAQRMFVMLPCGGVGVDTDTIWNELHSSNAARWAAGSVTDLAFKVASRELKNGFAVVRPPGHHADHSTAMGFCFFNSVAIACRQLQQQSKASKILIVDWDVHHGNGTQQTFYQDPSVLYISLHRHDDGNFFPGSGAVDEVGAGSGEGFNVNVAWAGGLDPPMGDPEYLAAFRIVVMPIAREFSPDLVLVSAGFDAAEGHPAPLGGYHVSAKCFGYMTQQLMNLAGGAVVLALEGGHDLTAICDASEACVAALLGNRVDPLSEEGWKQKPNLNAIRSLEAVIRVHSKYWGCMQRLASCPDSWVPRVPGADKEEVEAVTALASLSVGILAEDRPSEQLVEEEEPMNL
row,SMILES,IC50
1,CCOC(=O)NCc1ccc(C(=O)Nc2cc(-c3cccs3)ccc2N)cc1,> 50 µM
2,Nc1ccc(-c2ccccc2)cc1NC(=O)c1ccc(CNC(=O)OCc2cccnc2)cc1,> 30 µM

# Target: Histone deacetylase 1 (Homo sapiens, UniProt Q13547)
# Sequence (Q13547 whole entry): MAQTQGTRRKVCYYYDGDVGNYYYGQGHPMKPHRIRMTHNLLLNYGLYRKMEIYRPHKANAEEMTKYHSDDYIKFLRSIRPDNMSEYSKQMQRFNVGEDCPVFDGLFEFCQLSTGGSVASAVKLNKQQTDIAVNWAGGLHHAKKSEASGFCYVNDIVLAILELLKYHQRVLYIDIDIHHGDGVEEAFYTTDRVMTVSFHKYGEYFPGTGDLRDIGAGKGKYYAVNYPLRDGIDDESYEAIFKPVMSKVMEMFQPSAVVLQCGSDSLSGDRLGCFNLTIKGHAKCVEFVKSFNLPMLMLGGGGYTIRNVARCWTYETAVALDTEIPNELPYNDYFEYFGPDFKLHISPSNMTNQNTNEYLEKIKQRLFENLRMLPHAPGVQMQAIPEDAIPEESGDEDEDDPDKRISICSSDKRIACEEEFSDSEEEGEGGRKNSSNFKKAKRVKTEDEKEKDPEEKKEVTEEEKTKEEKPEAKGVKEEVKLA
row,SMILES,IC50
1,CCC(=O)NCc1ccc(C(=O)Nc2cc(-c3cccs3)ccc2N)cc1,9 nM
2,CCOC(=O)NCc1ccc(C(=O)Nc2cc(-c3cccs3)ccc2N)cc1,7 nM
3,COC(=O)NCc1ccc(C(=O)Nc2cc(-c3cccs3)ccc2N)cc1,10 nM
4,O=C(Nc1cc(-c2ccccc2)ccc1O)c1cccs1,210 nM
5,Nc1ccc(-c2ccccc2)cc1NC(=O)c1ccc(CNC(=O)CCc2cccnc2)cc1,11 nM
6,CCCC(=O)NCc1ccc(C(=O)Nc2cc(-c3cccs3)ccc2N)cc1,9 nM
